Data on nine molecules can be found in paper PMC7283928, “In vitro Mechanistic Exploration of Novel Spiropyrrolidine Heterocyclic Hybrids as Anticancer Agents” (Frontiers in Chemistry, 2020).

Like-named read-outs stand apart in the source and are kept apart here.

As a reminder, the mortality is the share of the test organisms that died. Lower therefore signals a weak lethal effect. Broadly, the IC50 is the point on the concentration scale where inhibition reaches its midpoint.

The subject of one data set is A549 cells. Kind of data set: Apoptosis assay (PI / Annexin V-FITC) in A549 cells. It is filed as cell-based, human. The conditions noted are these: for live cells: lower left quadrant; for apoptotic cells: lower right quadrant; for late apoptotic or early necrosis cells: upper right quadrant; for cells experiencing the apoptotic pathway: A549, 48 h incubation (Figure S12). The procedure: (§1) In order to study the molecular biology effects of synthesized spiropyrrolidine heterocyclic hybrids, we have used the in vitro toxicology tests and for that, two different cell types, each of cancer and non-cancer origin were employed. The non-cancer cell lines include the L929 mouse fibroblasts and MCF10 breast cells, while the cancer cell lines are A549 human alveolar basal epithelial cells and Jurkat human T lymphocyte cells. […] All the biological studies were carried by selecting Camptothecin (CPT) as a positive control and the cells of no treatment as the negative control. The reason for selecting this particular compound as a positive control is that it is a well-known anticancer agent and acts by the mechanism of topoisomerase I inhibition along with the DNA cleavage, subsequent inhibition of litigation, and finally leads to DNA strand breaks. The detailed procedures for the cell culturing and assay protocols were mentioned elaborately in our earlier publications (Bwatanglang et al., [2016a],[b]; Kumar et al., [2018]). Each experiment was repeated thrice and the results expressed as the mean ± standard deviation of all the data values. From the graph, the ^* and ^** corresponds to p < 0.05 and p < 0.01 vs. the untreated-control measurements.
The compound 5e induced apoptotic pathway for A549 treated cells over a 24 h period is compared against the positive (CPT, 30 μM) and negative controls and the results are shown in Figure 3. Similarly, the apoptosis study over the 48 h exposure period is shown in the supporting information of Figure S12. As compared to the behavior of cells shown in Figures 3A-1,B-1, the compound 5e treated cells (C-1) are experiencing a significant amount of apoptotic pathway. […] These numbers for the compound 5e treated cells are getting shifted to 39% of live cells, 40% apoptotic, and 18% late apoptotic or early necrosis pathways. The observation of only 9% apoptotic cells for the CPT treated cells while 40% for the 5e treated cells provides a preliminary indication of the way of handling the cancer cells by the compound 5e. Since the CPT acts directly onto the cancer cells and responsible for the accidental or irreversible pathway of reducing the cancer cell number and however, the compound 5e works in a systematic way and induces the cancer cell death almost similar to CPT. […] Since the cells which are experiencing the apoptotic pathway can be reversible and in that way the healthy normal cells can be reverted to their normal stage and at the same time the cancer cells can be molded to the late apoptotic or early necrosis pathways by applying some physiological changes to the cells.
Figure 3 Comparison of the apoptosis assay results for 5e treated cells along with the CPT treated and untreated cells over 24 h period for A549 cells. From the figure, A-1 & A-2 corresponds to the negative control, B-1 & B-2 for the positive control of CPT, and C-1 & C-2 for our testing sample 5e.

The nature of data set [1]: MTT cell viability assay, non-cancer L929 cells. It counts as cell-based. The conditions noted are these: mouse, L929 mouse fibroblast cells (non-cancer). The procedure:
as §1, with “measurements. […]” for “measurements.”

The nature of data set [2]: MTT cell viability assay, non-cancer MCF10 cells. It counts as cell-based. The conditions noted are these: human, MCF10 breast cells (non-cancer). As to the method: as §1, with “measurements. […]” for “measurements.”
Background: Tetrazolium assays rely on reduction of a dye to a coloured formazan, in cell work by metabolically active cells.

The test system of data set [3] is Jurkat human T lymphocyte cells. Put plainly: MTT cell viability and proliferation assay, Jurkat cells. It counts as cell-based. The conditions noted are these: for IC50: Homo sapiens, MTT. The procedure: as §1
(§2) Also, the loss of viability seems to be increased with an increase in the concentration and incubation period and this provides the preliminary information that the tested compounds are maintaining some levels of therapeutic behavior toward the cancer cells and if it can be guided carefully, can lead to the anticancer activity. […] This difference in the sensitivity of two cancer cells to the same testing compound can be attributed to the changes in the resistive response of each cell types which is supported by the intracellular protein mechanisms (Mohammad et al., [2014]; Bwatanglang et al., [2017]). Since the amount of intracellular proteins secreted by the cells are unique to each individual cell type and so in that way some cells may react very fast as compared to the others. Also, the efficiency of any chemotherapeutic agent is decided by its ability to reduce the cell count at the earliest possible time and in that way we have identified the A549 cells to be the highly responsive cell type to the compound 5e over a 24 h period as compared to the other compounds, cells, and time periods. The visual observation of cells by means of microscopic observation also be confirming for a decrease in the number of cells for the compound 5e treated cells as against the positive control of CPT (30 μM) and negative control of without any treatment (Figures S11, S11a). […] In a general way, our interest is with the therapeutic agent of higher efficiency at the shortest exposure period and so we carried the following mechanistic studies linked to the cell death for the compound 5e at the 24 h exposure period only.

The subject of data set [4] is A549 human alveolar basal epithelial cells. Kind of data set: MTT cell viability and proliferation assay, A549 cells. It counts as cell-based. As to the method: as §1, §2
A further data set has as its system caspases in A549 cells. Kind of data set: Caspase activity by fluorescence microscopy in A549 cells. The conditions noted are these: A549, 24 h, 5e at IC50, compared with CPT treated cells (Figure 4B). It counts as cell-based, human. As to the method: as §1, with “The detailed procedures for the cell culturing and assay protocols were mentioned elaborately in our earlier publications (Bwatanglang et al., [2016a],[b]; Kumar et al., [2018]).” left out, “From the graph, the ^* and ^** corresponds to p < 0.05 and p < 0.01 vs. the untreated-control measurements.” left out
Based on the results provided by the apoptotic assay, compound 5e was further tested toward the role of caspases as these are the proteins which get released in response to the specific death stimuli. […] Similarly, the observation of no such green fluorescence in the cytoplasm of cells shown in Figure 4A means that there is no initiation of such pathways in that particular culture.

[5] abbreviates: A549, 24 h, 5e at IC50 (55 μM), CPT 30 μM.
The mark [6] stands for this setting: 24 h incubation, read-out: IC50 μM (24 h) Jurkat.
The mark [7] stands for this setting: 48 h incubation, read-out: IC50 μM (48 h) Jurkat.
Setting [8] is: 24 h incubation, read-out: IC50 μM (24 h) A549.
Setting [9] is: 48 h incubation, read-out: IC50 μM (48 h) A549.

As for `CC[C@@]1(O)C(=O)OCc2c1cc1n(c2=O)Cc2cc3ccccc3nc2-1` [CPT, Camptothecin], in the data set on A549 cells (setting [5]), the “M2 (cells experiencing the apoptotic pathway)” value came to 48%, the live cells was found to be 45%, the apoptotic cells was 9% and the “late apoptotic or early necrosis cells” value was 36%. Further, the “cells experiencing the apoptotic pathway” value in the data set on A549 cells turned out to be 63%. In addition, the mortality at 30 μM in data set [1] was roughly 50%. In data set [2], this molecule had a mortality at 30 μM of roughly 50%.
As for `CN1C(Cc2ccc(O)cc2)C([N+](=O)[O-])C(c2ccc(Cl)cc2)C12C(=O)c1cccc3cccc2c13` (stereo not shown) [C00003], the IC50 stood at 63.2 ± 3.2 µM in data set [3] (setting [6]), 59.5 ± 4.1 µM in data set [3] (setting [7]), 77.3 ± 4.56 µM in data set [4] (setting [8]) and 52.3 ± 2.2 µM in data set [4] (setting [9]).
As for `CN1C(Cc2ccc(O)cc2)C([N+](=O)[O-])C(c2ccccc2)C12C(=O)c1cccc3cccc2c13` (stereo not shown) [C00001], the IC50 in data set [3] (setting [6]) stood at 65.6 ± 2.1 µM; in data set [3] (setting [7]), 31.4 ± 2.3 µM; in data set [4] (setting [8]), 84.2 ± 4.2 µM; in data set [4] (setting [9]), 68.5 ± 3.1 µM.
For the molecule `COc1ccc(C2C([N+](=O)[O-])C(Cc3ccc(O)cc3)N(C)C23C(=O)c2cccc4cccc3c24)cc1` (stereo not shown) [C00005], the IC50 was found to be 81.2 ± 3.1 µM in data set [3] (setting [6]) and 61.2 ± 4.6 µM in data set [3] (setting [7]).
As for `CN1C(Cc2ccc(O)cc2)C([N+](=O)[O-])C(c2cccc([N+](=O)[O-])c2)C12C(=O)c1cccc3cccc2c13` (stereo not shown) [5f, Spiro[acenaphthene-2′.2-pyrrolidin]-1′-one], the “loss of cell viability” value in data set [3] (highest concentration of 100 μM, 48 h) came to 90%.
In the case of `CN1C(Cc2ccc(O)cc2)C([N+](=O)[O-])C(c2cccc([N+](=O)[O-])c2)C12C(=O)c1cccc3cccc2c13` (stereo not shown) [C00006], the IC50 in data set [3] (setting [6]) worked out at 92.5 ± 2.8 µM; in data set [3] (setting [7]) it was 62.5 ± 4.4 µM; in data set [4] (setting [8]) it was 70.7 ± 3.45 µM; in data set [4] (setting [9]) it was 41.2 ± 2.4 µM.
On to `COc1ccc(C2C([N+](=O)[O-])C(Cc3ccc(O)cc3)N(C)C23C(=O)c2cccc4cccc3c24)cc1` (stereo not shown) [5e, Spiro[acenaphthene-2′.2-pyrrolidin]-1′-one], for which, in the data set on A549 cells (setting [5]), the live cells is on record as 39%, the apoptotic cells is recorded as 40% and the “late apoptotic or early necrosis cells” value stood at 18%. Moreover, the “cells experiencing the apoptotic pathway” value with A549 cells was determined as 88%. The IC50 in data set [4] (setting [8]) came out at 55.2 ± 2.15 µM. In addition, the IC50 in data set [4] (setting [9]) stood at 20.5 ± 3.6 µM. For the same molecule, the “caspase release (green fluorescence in cytoplasm)” value in the data set with caspases in A549 cells is reported as “higher than the corresponding cells shown in Figure 4B”.
For `CN1C(Cc2ccc(O)cc2)C([N+](=O)[O-])C(c2ccc(Br)cc2)C12C(=O)c1cccc3cccc2c13` (stereo not shown) [C00002], the IC50 in data set [3] (setting [6]) is 82.4 ± 4 µM; in data set [3] (setting [7]), 52.2 ± 3.5 µM; in data set [4] (setting [8]), 79.5 ± 3.15 µM; in data set [4] (setting [9]), 36.2 ± 4.5 µM.
For `Cc1ccc(C2C([N+](=O)[O-])C(Cc3ccc(O)cc3)N(C)C23C(=O)c2cccc4cccc3c24)cc1` (stereo not shown) [C00004], in that order: 78.2 ± 2.6 µM, 47.5 ± 3.8 µM, 82.1 ± 2.55 µM and 70.2 ± 2.8 µM.
